Data on two molecules can be found in publication PMC10522932, “A broad inhibitor of acyl-acyl carrier protein synthetases” (Biochemistry and Biophysics Reports, 2023).

For orientation: inhibition means the change of the read-out against control, counted positive when it falls.

Common to all, as to assay: urea-PAGE gel shift of acyl-ACP, densitometry
What all share (assay type): biochemical

The target of assay [1] is T1, VhAasS (Vibrio harveyi, UniProt Q00IB3).
T1 construct: gene aasS; His6-tagged, E. coli BL21[DE3], Ni-NTA purified; soluble enzyme
T1 sequence (Q00IB3 1-533): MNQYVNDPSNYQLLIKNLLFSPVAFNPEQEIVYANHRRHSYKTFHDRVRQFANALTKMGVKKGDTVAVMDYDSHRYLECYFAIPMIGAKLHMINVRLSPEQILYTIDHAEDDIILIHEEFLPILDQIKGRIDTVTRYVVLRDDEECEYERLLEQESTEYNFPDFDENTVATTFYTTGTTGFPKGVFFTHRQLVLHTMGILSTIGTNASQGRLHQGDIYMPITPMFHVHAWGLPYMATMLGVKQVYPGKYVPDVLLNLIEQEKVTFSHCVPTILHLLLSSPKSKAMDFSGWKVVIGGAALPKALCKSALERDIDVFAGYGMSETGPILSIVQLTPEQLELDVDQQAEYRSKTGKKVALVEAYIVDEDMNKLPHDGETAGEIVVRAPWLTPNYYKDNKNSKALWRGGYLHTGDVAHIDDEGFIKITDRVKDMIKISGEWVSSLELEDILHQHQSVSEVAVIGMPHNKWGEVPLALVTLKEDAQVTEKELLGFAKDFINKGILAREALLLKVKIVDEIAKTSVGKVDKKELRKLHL
As to conditions: read-out: % inhibition at 1 mM.

The target in assay [2] is T2, AasC (Chlamydia trachomatis, UniProt O84781).
T2 construct: gene aas; His6-tagged (pET16b or pET29a, synthetic gene), E. coli BL21[DE3], Ni-NTA purified
T2 sequence (O84781 1-537): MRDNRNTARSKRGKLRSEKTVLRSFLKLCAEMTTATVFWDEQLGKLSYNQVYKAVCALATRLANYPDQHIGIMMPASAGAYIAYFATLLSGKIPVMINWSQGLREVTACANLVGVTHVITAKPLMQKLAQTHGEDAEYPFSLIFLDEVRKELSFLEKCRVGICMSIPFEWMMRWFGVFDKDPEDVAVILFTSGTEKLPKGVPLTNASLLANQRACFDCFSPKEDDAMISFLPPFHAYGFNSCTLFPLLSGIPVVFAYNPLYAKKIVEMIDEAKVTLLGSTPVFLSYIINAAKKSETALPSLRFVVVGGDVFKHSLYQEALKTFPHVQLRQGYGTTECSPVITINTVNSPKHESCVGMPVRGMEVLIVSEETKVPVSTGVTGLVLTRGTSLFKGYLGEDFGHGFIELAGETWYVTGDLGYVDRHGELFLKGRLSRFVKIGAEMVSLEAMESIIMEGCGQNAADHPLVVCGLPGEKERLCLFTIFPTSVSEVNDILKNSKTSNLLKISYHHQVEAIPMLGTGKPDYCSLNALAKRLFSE
As to conditions: read-out: % inhibition at 1 mM.

Assay [3] deals with T1, VhAasS. As to conditions: holo-EcACP 30 uM, decanoic acid 1 mM, ATP 10 mM, MgCl2 12.5 mM, TCEP 2.5 mM, enzyme 2 uM, pH 7.5, 37 C, 24 h.
The target in assay [4] is T2, AasC. As to conditions: holo-EcACP 30 uM, decanoic acid 1 mM, ATP 10 mM, MgCl2 12.5 mM, TCEP 2.5 mM, enzyme 50 uM, pH 7.5, 37 C, 24 h.

`CCCCCCCCCC(=O)NS(=O)(=O)OC[C@H]1O[C@@H](n2cnc3c(N)ncnc32)[C@H](O)[C@@H]1O` [C10-AMS]: the inhibition at 1000 µM in assay [1] and in assay [2] was 100% each time.
As to `CCCCCCCCCC(=O)O` [decanoic acid], the “urea-PAGE gel shift of acyl-ACP, densitometry” value in assay [3] and in assay [4] was “All AasS enzymes tested were able to load C10 onto EcACP” in each case.
